Source: PubChem BioAssay (NCI)
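Five concentrations, 48 hours, 96-well plates. GI50 is the concentration that inhibits growth by half. Definition used: TGI = concentration required for complete inhibition of growth.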

Experiments:
Test in all cases: NCI-60 cell line screen, 48 h
[1] = tested on: 786-0 renal
[2] = tested on: A498 renal
[3] = tested on: A549 NSCLC
[4] = tested on: ACHN renal
[5] = tested on: BT-549 breast
[6] = tested on: CAKI-1 renal
[7] = tested on: CCRF-CEM leukemia
[8] = tested on: COLO 205 colon
[9] = tested on: DU-145 prostate
[10] = tested on: EKVX NSCLC
[11] = tested on: HCC-2998 colon
[12] = tested on: HCT-116 colon
[13] = tested on: HCT-15 colon
[14] = tested on: HL-60(TB) leukemia
[15] = tested on: HOP-62 NSCLC
[16] = tested on: HOP-92 NSCLC
[17] = tested on: HS 578T breast
[18] = tested on: HT29 colon
[19] = tested on: IGROV1 ovarian
[20] = tested on: K-562 leukemia
[21] = tested on: KM12 colon
[22] = tested on: LOX IMVI melanoma
[23] = tested on: MALME-3M melanoma
[24] = tested on: MCF7 breast
[25] = tested on: MDA-MB-231 breast
[26] = tested on: MOLT-4 leukemia
[27] = tested on: NCI-H226 lung
[28] = tested on: NCI-H23 lung
[29] = tested on: NCI-H460 lung
[30] = tested on: NCI-H522 lung
[31] = tested on: NCI/ADR-RES ovarian
[32] = tested on: OVCAR-3 ovarian
[33] = tested on: OVCAR-4 ovarian
[34] = tested on: OVCAR-5 ovarian
[35] = tested on: OVCAR-8 ovarian
[36] = tested on: PC-3 prostate
[37] = tested on: RPMI-8226 leukemia
[38] = tested on: RXF 393 renal
[39] = tested on: SF-268 CNS
[40] = tested on: SF-295 CNS
[41] = tested on: SF-539 CNS
[42] = tested on: SK-MEL-2 melanoma
[43] = tested on: SK-MEL-5 melanoma
[44] = tested on: SK-OV-3 ovarian
[45] = tested on: SN12C renal
[46] = tested on: SNB-19 CNS
[47] = tested on: SNB-75 CNS
[48] = tested on: SR leukemia
[49] = tested on: SW-620 colon
[50] = tested on: TK-10 renal
[51] = tested on: U251 CNS
[52] = tested on: UACC-257 melanoma
[53] = tested on: UACC-62 melanoma
[54] = tested on: UO-31 renal
[55] = tested on: M14 melanoma
[56] = tested on: MDA-MB-435
[57] = tested on: SK-MEL-28 melanoma
[58] = tested on: T-47D breast

CCC(C)(C)[C@H](NC(=O)[C@H]1CCCCN1C)C(=O)N(C)[C@H](C[C@@H](OC(C)=O)c1nc(C(=O)N[C@@H](Cc2ccccc2)C[C@H](C)C(=O)O)cs1)C(C)C
GI50 [1]: < 0.00167 µM
TGI [1]: > 16.7 µM
GI50 [2]: < 0.00167 µM
TGI [2]: 0.0113 µM
GI50 [3]: < 0.00167 µM
TGI [3]: > 16.7 µM
GI50 [4]: < 0.00167 µM
TGI [4]: > 16.7 µM
GI50 [5]: < 0.00167 µM
TGI [5]: 0.0136 µM
GI50 [6]: < 0.00167 µM
TGI [6]: > 16.7 µM
GI50 [7]: < 0.00167 µM
TGI [7]: > 16.7 µM
GI50 [8]: < 0.00167 µM
TGI [8]: 0.00277 µM
GI50 [9]: < 0.00167 µM
GI50 [10]: < 0.00167 µM
TGI [10]: > 16.7 µM
GI50 [11]: < 0.00167 µM
TGI [11]: > 16.7 µM
GI50 [12]: < 0.00167 µM
TGI [12]: > 16.7 µM
GI50 [13]: < 0.00167 µM
TGI [13]: > 16.7 µM
GI50 [14]: < 0.00167 µM
TGI [14]: < 0.00167 µM
GI50 [15]: < 0.00167 µM
TGI [15]: > 16.7 µM
GI50 [16]: 0.00661 µM
TGI [16]: > 16.7 µM
GI50 [17]: < 0.00167 µM
TGI [17]: > 11.5 µM
GI50 [18]: < 0.00167 µM
TGI [18]: > 16.7 µM
GI50 [19]: < 0.00167 µM
TGI [19]: > 16.7 µM
GI50 [20]: < 0.00167 µM
TGI [20]: > 16.7 µM
GI50 [21]: < 0.00167 µM
TGI [21]: > 16.7 µM
GI50 [22]: < 0.00167 µM
TGI [22]: > 16.7 µM
GI50 [23]: < 0.00167 µM
TGI [23]: > 16.7 µM
GI50 [24]: < 0.00167 µM
TGI [24]: > 16.7 µM
GI50 [25]: < 0.00167 µM
GI50 [26]: < 0.00167 µM
TGI [26]: > 16.7 µM
GI50 [27]: < 0.00167 µM
TGI [27]: 0.00743 µM
GI50 [28]: < 0.00167 µM
TGI [28]: > 16.7 µM
GI50 [29]: < 0.00167 µM
TGI [29]: > 16.7 µM
GI50 [30]: < 0.00167 µM
TGI [30]: 0.00583 µM
GI50 [31]: 0.00342 µM
TGI [31]: > 16.7 µM
GI50 [32]: < 0.00167 µM
TGI [32]: 0.00472 µM
GI50 [33]: 0.00798 µM
TGI [33]: > 16.7 µM
GI50 [34]: < 0.00167 µM
TGI [34]: > 16.7 µM
GI50 [35]: < 0.00167 µM
TGI [35]: > 16.7 µM
GI50 [36]: < 0.00167 µM
TGI [36]: > 16.7 µM
GI50 [37]: < 0.00167 µM
TGI [37]: > 16.7 µM
GI50 [38]: < 0.00167 µM
GI50 [39]: 0.00217 µM
TGI [39]: > 16.7 µM
GI50 [40]: < 0.00167 µM
GI50 [41]: < 0.00167 µM
TGI [41]: < 0.00167 µM
GI50 [42]: < 0.00167 µM
TGI [42]: > 16.7 µM
GI50 [43]: < 0.00167 µM
TGI [43]: 0.00294 µM
GI50 [44]: < 0.00167 µM
TGI [44]: > 16.7 µM
GI50 [45]: < 0.00167 µM
TGI [45]: > 16.7 µM
GI50 [46]: < 0.00167 µM
TGI [46]: > 16.7 µM
GI50 [47]: < 0.00167 µM
TGI [47]: > 16.7 µM
GI50 [48]: < 0.00167 µM
TGI [48]: > 16.7 µM
GI50 [49]: < 0.00167 µM
TGI [49]: > 16.7 µM
GI50 [50]: 0.253 µM
TGI [50]: > 16.7 µM
GI50 [51]: < 0.00167 µM
TGI [51]: > 16.7 µM
GI50 [52]: > 16.7 µM
TGI [52]: > 16.7 µM
GI50 [53]: < 0.00167 µM
TGI [53]: > 16.7 µM
GI50 [54]: 0.00873 µM
TGI [54]: > 16.7 µM

COc1ccc(-c2coc3cc(O)cc(O)c3c2=O)cc1
TGI [1]: > 10 µM
TGI [3]: > 10 µM
TGI [4]: > 10 µM
TGI [6]: > 10 µM
TGI [7]: > 10 µM
TGI [8]: > 10 µM
TGI [14]: > 10 µM
TGI [15]: > 10 µM
TGI [19]: > 10 µM
TGI [20]: > 10 µM
TGI [55]: > 10 µM
TGI [23]: > 10 µM
TGI [24]: > 10 µM
TGI [56]: > 10 µM
TGI [26]: > 10 µM
TGI [28]: > 10 µM
TGI [29]: > 10 µM
TGI [31]: > 10 µM
TGI [33]: > 10 µM
TGI [34]: > 10 µM
TGI [37]: > 10 µM
TGI [38]: > 10 µM
TGI [39]: > 10 µM
TGI [42]: > 10 µM
TGI [57]: > 10 µM
TGI [43]: > 10 µM
TGI [44]: > 10 µM
TGI [47]: > 10 µM
TGI [48]: > 10 µM
TGI [49]: > 10 µM
TGI [58]: > 10 µM
TGI [51]: > 10 µM
TGI [53]: > 10 µM

O=C1CCCC2=C1CC1=C(CCCC1=O)N2c1ccc([N+](=O)[O-])cc1
TGI [1]: > 100 µM
TGI [2]: > 100 µM
TGI [3]: > 100 µM
TGI [4]: > 100 µM
TGI [5]: > 100 µM
TGI [6]: > 100 µM
TGI [7]: > 100 µM
TGI [10]: > 100 µM
TGI [11]: > 100 µM
TGI [13]: > 100 µM
TGI [14]: > 100 µM
TGI [17]: > 100 µM
TGI [18]: > 100 µM
TGI [19]: > 100 µM
TGI [20]: > 100 µM
TGI [21]: > 100 µM
TGI [22]: > 100 µM
TGI [55]: > 100 µM
TGI [24]: > 100 µM
TGI [26]: > 100 µM
TGI [27]: > 100 µM
TGI [28]: > 100 µM
TGI [29]: > 100 µM
TGI [31]: > 100 µM
TGI [32]: > 100 µM
TGI [33]: > 100 µM
TGI [34]: > 100 µM
TGI [35]: > 100 µM
TGI [36]: > 100 µM
TGI [37]: > 100 µM
TGI [38]: > 100 µM
TGI [39]: > 100 µM
TGI [41]: > 100 µM
TGI [57]: > 100 µM
TGI [43]: > 100 µM
TGI [44]: > 100 µM
TGI [45]: > 100 µM
TGI [46]: > 100 µM
TGI [47]: > 100 µM
TGI [48]: > 100 µM
TGI [49]: > 100 µM
TGI [50]: > 100 µM
TGI [51]: > 100 µM
TGI [53]: > 100 µM
TGI [54]: > 100 µM
